These results are taken from publication PMC12668304, “A Triple Threat Against Ovarian Cancer: Os(II)‐Pt(IV)‐Ceritinib Conjugates for Photodynamic Therapy, Chemotherapy, and Immunogenic Cell Death Induction” (Angewandte Chemie (International Ed. in English), 2025).

What is called IC50 is the concentration needed to halve the response being measured.

Series [1] concerns RPE‐1 cells. Put plainly: (Photo-)cytotoxicity on 2D cell monolayers, resazurin assay. It is filed as cell-based. As to conditions: for IC50: RPE‐1, normoxic, 4 h exposure. The protocol:
(§1) The 2D cytotoxicity and phototoxicity profiles of Os‐Pt‐Cer and controls, were evaluated in a panel of cancerous cell lines, including A2780 (ovarian carcinoma), A549 (non‐small cell lung carcinoma), and MCA205 (murine fibrosarcoma), as well as a non‐cancerous retinal pigment epithelial cell line (RPE‐1). Cells were treated with the compounds (0.003–100 µM) for 4 h, either kept in the dark or irradiated at 670 nm (13.5 J cm^− ^2) (Table S4 and Figure S22) or 740 nm (12.6 J cm^− ^2) and viability was assessed 44 h post‐treatment. To verify robustness, the incubation was extended to 72 h. […]
(§2) Human ovarian cancer (A2780) cells and mouse fibrosarcoma cells (MCA205) were cultured in RPMI media. Retinal pigment epithelium (RPE -1) cells were cultured in DMEM/F -12 medium. Lung cancer cells (A549) were cultured in F -12K medium. These cell lines were complemented with 10% of fetal bovine serum, 100 U/mL penicillin -streptomycin mixture, and maintained in a humidified atmosphere […]
(§3) (Photo-)cytotoxicity on 2D cell monolayers
(§4) The cytotoxicity of the compounds was assessed by measuring cell viability using a resazurin assay.
(§5) The cells were seeded in triplicates in 96 well plates with a density of 10 4 cells per well in 100 μL of media. After 24 h, the medium was removed, and the cells were treated with increasing concentrations (0.003 → 100 µM) of the compounds diluted in cell media , achieving a total volume of 100 μL/well.
(§6) The cells were incubated with the compound for 4 h (final incubation time 48 h) or 24 h (final incubation time 72 h). After this time, the media was removed and replaced with 100 μL of fresh medium. For the phototoxicity studies, the cells were exposed to light with an Atlas Photonics LUMOS BIO irradiation system. Each well was constantly irradiated at 670 nm (60 min, 13.50 J·cm-2) or 740 nm (60 min, 12.60 J·cm-2). During the irradiation, the temperature of the plate was maintained at 37 °C. The cells were grown in the incubator for an additional 44 or 48 h, respectively. For the determination of the dark cytotoxicity, the cells were not irradiated and after the medium exchange directly incubated for 44 h.
(§7) After this time, the medium was replaced with fresh medium containing resazurin (0.2 mg/mL). After […]
(§8) 4 h of incubation, the conversion of resazurin into resorufin was determined upon excitation at 540 nm and measurement of its emission at 590 nm using a Cytation 5 Imaging Reader from BioTek. The obtained data was analysed with the GraphPad Prism software […]
(§9) After 24 h of incubation at 37 °C, 5% CO 2, plates were read using a SpectraMaxM2 Microplate Reader ( λexc = 540 nm; λread = 590 nm). Fluorescence data were normalised, and data were fitted using GraphPad Prism Software, and IC 50 was calculated by non - linear regression. Changes in the size and shape of MCTS were monitored every 24 h using Cytation 5 Imaging Reader from BioTek, objective x4.
(§10) Intracellular distribution by confocal fluorescence microscopy
(§11) 10^4 cells/well (A2780 cells) were seeded in complete medium (RPMI) in µ -slide 8 well (Ibidi) (100 µl/well) and left for 24 h to attach to the bottom. Then, the culture medium was removed , and 100 µl of solution of the corresponding complexes (5 µM) was added. The complexes were incubated with the cells for 4 hours. Thereafter, the medium was removed and replaced by RPMI without phenol red , and Hoechst and MitoTracker Green were added at a final concentration of 1 µg/mL. They were incubated with the cells for 30 min in the dark at 37 °C. Images were collected in a sequential mode in a Leica TCS SP8 confocal microscope with a 60x oil immers ion objective, a line average of 4, and a format of […]
(§12) (MTG)→ 500 -550nm, and 488 nm (complexes)→ 680 -730 nm. The confocal pinhole was 1 Airy unit.
(§13) Images were analysed with LAS X Flim FCS software.
(§14) Intracellular distribution by ICP -MS

In series [2] the test system is A549 cells. The series is described as above. It is filed as cell-based. As to conditions: A549, normoxic, dark, 4 h exposure, total 48 h incubation; read-out: IC50 Dark. The protocol: as §1, §2, §3, §4, §5, §6, §7, §8, §9, §10, §11, §12, §13, §14
The subject of series [3] is A2780 MCTSs. Kind of series: (Photo-)cytotoxicity on 3D multicellular tumour spheroids, resazurin assay. It is filed as cell-based, human. Conditions: normoxic, dark, one week of incubation, read-out: IC50 Dark. The protocol: A2780 spheroids (ca. 500 µm in diameter) were treated with increasing concentrations of the compounds and after 24 h of incubation, the medium was replaced with fresh medium, and the cells were either kept in the dark or irradiated for 1 h at 740 nm. Images of the spheroids were taken every 24 h for 3 days.
Additionally, the phototoxicity was tested via a fluorometric resazurin assay in A2780 MCTSs (Table 3). […] (Figure S29). […] This can be attributed to the different biological endpoints and time frames of the assays: spheroid diameter was monitored over 72 h, whereas resazurin measurements were performed after 7 days, potentially capturing delayed cytotoxic effects due to differences in drug cellular uptake.
4 h of incubation, the conversion of resazurin into resorufin was determined upon excitation at 540 nm and measurement of its emission at 590 nm using a Cytation 5 Imaging Reader from BioTek. The obtained data was analysed with the GraphPad Prism software
MCTS were cultured using ultra-low attachment 96 wells plates from Corning (Fisher Scientific 15329740). A2780 cells were seeded at a density of 1,500 cells per well in 100 μL of RPMI. Within 2-3 days, MCTSs have approximately 500 μm of diameter. The formation as well as integrity and diameter of the MCTSs were monitored by microscopy.
(Photo-)cytotoxicity on 3D multicellular tumor spheroids (MCTS)
After 2 days of growing at 37 °C in 5% CO2, the medium was removed, and MCTSs were treated by adding 100 μL of the medium in the well with increasing concentrations of compounds (Os-Pt-Cer, Os, Ceritinib, Oxaliplatin, cisplatin, and Ce6 as additional control). For untreated reference MCTSs, only half of the medium was added with fresh medium. After 24 hours, the MCTSs were divided into two identical groups. The first group was strictly kept in the dark. The second group was irradiated at 740 nm for 1 h (12.60 J·cm-2) using a LUMOS-BIO photoreactor (Atlas Photonics). After the irradiation, all groups were incubated additional 7 days. Thereafter, medium was replaced with 100 μL of fresh medium containing resazurin (0.2 mg/mL). After 24 h of incubation at 37 °C, 5% CO 2, plates were read using a SpectraMaxM2 Microplate Reader ( λexc = 540 nm; λread = 590 nm). Fluorescence data were normalised, and data were fitted using GraphPad Prism Software, and IC 50 was calculated by non - linear regression. Changes in the size and shape of MCTS were monitored every 24 h using Cytation 5 Imaging Reader from BioTek, objective x4. […]
Figure S29. Cell viability graphs after one week of incubation. Studied compounds were incubated for 24 h, thereafter the medium was renovated. For PDT, plates were irradiated at 740 nm for 1h using a LUMOS-BIO photoreactor (Atlas Photonics). For both PDT and regular cytotoxicity, cells were incubated for one week at 37 °C, 5 % CO2. The medium was renovated each two days. Then, the medium was replaced with 100 µL of fresh medium containing 0.2 mg/mL resazurin (Acros Organics). After 24 h of incubation, the fluorescence signal of the resazurin product was recorded (λexc = 540 nm; λem = 590 nm) using a Cytation 5 Cell Imaging Multi-Mode Reader (Biotek - Agilent).
(1 picture or pasted object on this page, not shown here)
In general terms: Resazurin is reduced to fluorescent resorufin, in cell work by metabolically active cells.

The subject of series [4] is MCA205 cells. Put plainly: (Photo-)cytotoxicity on 2D cell monolayers, resazurin assay. It is filed as cell-based, mouse. Conditions: MCA205, normoxic, dark, 4 h exposure, total 48 h incubation; read-out: IC50 Dark. The protocol: as §1, §2, §3, §4, §5, §6, §7, §8, §9, §10, §11, §12, §13, §14
In series [5] the test system is A2780 cells. The description is as above. It is filed as cell-based, human. Conditions: for IC50: A2780, normoxic, 4 h exposure. The protocol:
as §1, §2, §3, §4, §5, §6, §7, §8, §9, §10, §11, §12, §13, §14

On the set-up of series [6]: method as in not given. Conditions: standard, acetonitrile; ref not given; cited from earlier work.
Setting [7] is: dark, total 48 h incubation, read-out: IC50 Dark.
[8] abbreviates: Homo sapiens, 740 nm (60 min, 12.60 J·cm^−2), total 48 h, read-out: IC50 Irrad. 740 nm.
The mark [9] stands for this setting: Homo sapiens, dark, total 48 h incubation, read-out: IC50 Dark.

Read-outs that look alike come from different tables or passages of the source.

For the molecule `N.N.[Cl][Pt][Cl]` [Cisplatin], the half-maximal inhibitory concentration (IC50) in series [1] (setting [7]) amounted to 15.2 ± 0.7 µM; in series [2], 1.11 ± 0.33 µM; in series [3], 2 ± 0.4 µM; in series [4], 0.72 ± 0.2 µM; in series [5] (setting [7]), 1.92 ± 0.4 µM.

Regarding `C=CC1=C(C)c2cc3[nH]c(cc4nc(cc5[nH]c(cc1n2)c(C)c5CCC(=O)O)C(CCC(=O)O)=C4C)c(C)c3C=C` [PPIX, Protoporphyrin], the IC50 in series [1] (setting [8]) was 41.6 ± 0.3 µM; in series [1] (setting [9]), above 100 µM; in series [5] (setting [8]), 17.3 ± 0.01 µM; in series [5] (setting [9]), above 100 µM. Moreover, the “PI (IC50 dark/IC50 irradiation 740 nm)” value is at least 2 in series [1] (RPE‐1) and at least 6 in series [5] (A2780).

Turning to `[Ru+2].c1ccc(-c2ccccn2)nc1.c1ccc(-c2ccccn2)nc1.c1ccc(-c2ccccn2)nc1` [Ru(bpy)3, Tris(2,2'-bipyridyl) ruthenium (II)], in series [6], the Quantum yield is on record as 0.077 and the “Singlet oxygen quantum yield” value is reported as 0.77.
